Experiments:
Or42b (dOr42b) [1] = molecular target: T1, Or42b (dOr42b) (Drosophila melanogaster, UniProt Q9V9I4); assay: GC-coupled calcium imaging (GCaMP6m) of Or42b neurons; details: inhibitory (calcium decrease) at own elution time, direct receptor action not separately proven
T1 construct: native receptor in Or42b olfactory sensory neurons of living female flies (Or42b-Gal4 > UAS-GCaMP6m); calcium imaging of antenna or glomerulus DM1; endogenous Orco; with Odorant receptor coreceptor
T1 sequence (Q9V9I4 1-399): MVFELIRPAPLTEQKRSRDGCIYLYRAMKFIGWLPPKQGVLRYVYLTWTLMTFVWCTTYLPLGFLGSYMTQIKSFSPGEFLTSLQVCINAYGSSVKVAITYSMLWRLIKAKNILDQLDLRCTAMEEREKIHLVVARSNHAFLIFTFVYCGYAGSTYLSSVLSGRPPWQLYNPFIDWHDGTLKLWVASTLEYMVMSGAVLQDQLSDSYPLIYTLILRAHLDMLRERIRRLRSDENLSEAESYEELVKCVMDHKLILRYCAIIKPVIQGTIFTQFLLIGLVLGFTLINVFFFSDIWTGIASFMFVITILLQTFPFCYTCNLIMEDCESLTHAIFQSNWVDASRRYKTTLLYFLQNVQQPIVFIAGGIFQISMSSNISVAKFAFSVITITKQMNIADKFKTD
T1 sequence (Q9VNB5 1-486 partner): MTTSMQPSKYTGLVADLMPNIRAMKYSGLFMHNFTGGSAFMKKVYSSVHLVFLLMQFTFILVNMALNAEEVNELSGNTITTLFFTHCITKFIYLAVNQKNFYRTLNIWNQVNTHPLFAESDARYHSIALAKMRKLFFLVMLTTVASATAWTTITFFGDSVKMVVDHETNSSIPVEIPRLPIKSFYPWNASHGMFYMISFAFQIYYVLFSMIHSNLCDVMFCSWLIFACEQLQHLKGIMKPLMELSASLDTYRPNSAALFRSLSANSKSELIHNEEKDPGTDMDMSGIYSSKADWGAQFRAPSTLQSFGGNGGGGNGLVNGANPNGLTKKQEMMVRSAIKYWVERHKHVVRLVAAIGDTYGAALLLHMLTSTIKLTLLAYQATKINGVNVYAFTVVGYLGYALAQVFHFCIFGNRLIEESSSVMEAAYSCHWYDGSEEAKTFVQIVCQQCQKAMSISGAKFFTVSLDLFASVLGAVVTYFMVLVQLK

Or42b (dOr42b) [2] = molecular target: T1, Or42b (dOr42b); assay: GC-coupled antennal calcium imaging (GCaMP6m) of Or42b neurons, single dose; details: agonist, 10^-2 dilution
[3] = GC-purified eluate of headspace

| Compound | GC-coupled antennal calcium imaging (GCaMP6m) of Or42b neurons, single dose (Or42b (dOr42b) [2]; [3]) | further results |
| --- | --- | --- |
| O=Cc1ccccc1 [benzaldehyde-d5] | – | GC-coupled calcium imaging (GCaMP6m) of Or42b neurons (Or42b (dOr42b) [1]; 10^-2 and 10^-1 dilution, deuterated compound, excitation without GC due to ethyl acetate impurity): response to either benzaldehyde-h or benzaldehyde-d5 was inhibitory at the elution time of benzaldehyde |
| O=Cc1ccccc1 [benzaldehyde-h] | – | GC-coupled calcium imaging (GCaMP6m) of Or42b neurons (Or42b (dOr42b) [1]; 10^-2 dilution): response to either benzaldehyde-h or benzaldehyde-d5 was inhibitory at the elution time of benzaldehyde |
| CCOC(=O)C[C@H](C)O [ethyl (S)-(+)-3-hydroxybutyrate] | ethyl propionate, propyl acetate, and ethyl (S)-(+)-3-hydroxybutyrate all elicited responses that decayed slowly | – |
| CCCC(=O)OCC [ethyl butyrate] | – | GC-coupled antennal calcium imaging (GCaMP6m) of Or42b neurons, single dose (Or42b (dOr42b) [2]; GC-purified, own elution peak (sample also held other active impurities)): unknown, and one corresponding to ethyl butyrate itself |
| CCOC(=O)CC [ethyl propionate] | ethyl propionate, propyl acetate, and ethyl (S)-(+)-3-hydroxybutyrate all elicited responses that decayed slowly | – |
| CCCOC(C)=O [propyl acetate] | ethyl propionate, propyl acetate, and ethyl (S)-(+)-3-hydroxybutyrate all elicited responses that decayed slowly | – |

— paper PMC5490255, “Minute Impurities Contribute Significantly to Olfactory Receptor Ligand Studies: Tales from Testing the Vibration Theory” (eNeuro, 2017)
